According to ChEMBL document CHEMBL4507256 (2021):

Assays:
[1] = target: Serine/threonine-protein kinase ULK1 (Homo sapiens) (UniProt O75385); conditions: Compound concentration 1000.0 nM
[2] = target: Tyrosine-protein kinase BTK (Homo sapiens) (UniProt Q06187); conditions: Compound concentration 1000.0 nM
[3] = target: Peripheral plasma membrane protein CASK (Homo sapiens) (UniProt O14936); conditions: Compound concentration 1000.0 nM
[4] = target: Ephrin type-A receptor 4 (Homo sapiens) (UniProt P54764); conditions: Compound concentration 1000.0 nM
[5] = target: Serine/threonine-protein kinase DCLK3 (Homo sapiens) (UniProt Q9C098); conditions: Compound concentration 1000.0 nM
[6] = target: Myotonin-protein kinase (Homo sapiens) (UniProt Q09013); conditions: Compound concentration 1000.0 nM
[7] = target: Serine/threonine-protein kinase WNK4 (Homo sapiens) (UniProt Q96J92); conditions: Compound concentration 1000.0 nM
[8] = target: Mast/stem cell growth factor receptor Kit (Homo sapiens) (UniProt P10721); conditions: Compound concentration 1000.0 nM
[9] = target: cAMP-dependent protein kinase catalytic subunit beta (Homo sapiens) (UniProt P22694); conditions: Compound concentration 1000.0 nM
[10] = target: Serine/threonine-protein kinase PAK 6 (Homo sapiens) (UniProt Q9NQU5); conditions: Compound concentration 1000.0 nM
[11] = target: Phosphatidylinositol 4,5-bisphosphate 3-kinase catalytic subunit alpha isoform (Homo sapiens) (UniProt P42336); conditions: Compound concentration 1000.0 nM
[12] = system: Proto-oncogene tyrosine-protein kinase receptor Ret (Homo sapiens), P07949 [V804M]; conditions: Compound concentration 1000.0 nM
[13] = target: Bone morphogenetic protein receptor type-2 (Homo sapiens) (UniProt Q13873); conditions: Compound concentration 1000.0 nM
[14] = system: Epidermal growth factor receptor (Homo sapiens), P00533 [UNDEFINED MUTATION]; conditions: Compound concentration 1000.0 nM
Rattus norvegicus = organism: Rattus norvegicus; conditions: Compound concentration 10.0 uM
[15] = target: Non-receptor tyrosine-protein kinase TYK2 (Homo sapiens) (UniProt P29597); conditions: Compound concentration 1000.0 nM
[16] = target: Serine/threonine-protein kinase PAK 3 (Homo sapiens) (UniProt O75914); conditions: Compound concentration 1000.0 nM
[17] = target: SNF-related serine/threonine-protein kinase (Homo sapiens) (UniProt Q9NRH2); conditions: Compound concentration 1000.0 nM
[18] = target: Citron Rho-interacting kinase (Homo sapiens) (UniProt O14578); conditions: Compound concentration 1000.0 nM
[19] = system: Epidermal growth factor receptor (Homo sapiens), P00533 [G719S]; conditions: Compound concentration 1000.0 nM
[20] = target: Phosphatidylinositol 3-kinase C2 domain-containing subunit gamma (Homo sapiens) (UniProt O75747); conditions: Compound concentration 1000.0 nM
[21] = target: SRSF protein kinase 1 (Homo sapiens) (UniProt Q96SB4); conditions: Compound concentration 1000.0 nM
[22] = target: Ribosomal protein S6 kinase alpha-5 (Homo sapiens) (UniProt O75582); conditions: Compound concentration 1000.0 nM
[23] = target: Myosin-IIIa (Homo sapiens) (UniProt Q8NEV4); conditions: Compound concentration 1000.0 nM
[24] = target: Serine/threonine-protein kinase TNNI3K (Homo sapiens) (UniProt Q59H18); conditions: Compound concentration 1000.0 nM
[25] = target: Cyclin-dependent kinase 8 (Homo sapiens) (UniProt P49336); conditions: Compound concentration 1000.0 nM
[26] = system: Receptor-type tyrosine-protein kinase FLT3 (Homo sapiens), P36888 [UNDEFINED MUTATION]; conditions: Compound concentration 1000.0 nM
[27] = target: Inhibitor of nuclear factor kappa-B kinase subunit epsilon (Homo sapiens) (UniProt Q14164); conditions: Compound concentration 1000.0 nM
[28] = target: 3-phosphoinositide-dependent protein kinase 1 (Homo sapiens) (UniProt O15530); conditions: Compound concentration 1000.0 nM
[29] = target: Serine/threonine-protein kinase WNK2 (Homo sapiens) (UniProt Q9Y3S1); conditions: Compound concentration 1000.0 nM
[30] = target: Serine/threonine-protein kinase/endoribonuclease IRE1 (Homo sapiens) (UniProt O75460); conditions: Compound concentration 1000.0 nM
[31] = target: 5-hydroxytryptamine receptor 6 (Homo sapiens) (UniProt P50406); conditions: Compound concentration 10.0 uM
[32] = target: Casein kinase I isoform delta (Homo sapiens) (UniProt P48730); conditions: Compound concentration 1000.0 nM
[33] = target: Protein-tyrosine kinase 2-beta (Homo sapiens) (UniProt Q14289); conditions: Compound concentration 1000.0 nM
[34] = target: Homeodomain-interacting protein kinase 1 (Homo sapiens) (UniProt Q86Z02); conditions: Compound concentration 1000.0 nM
[35] = target: Vascular endothelial growth factor receptor 3 (Homo sapiens) (UniProt P35916); conditions: Compound concentration 1000.0 nM
[36] = target: Ribosomal protein S6 kinase alpha-1 (Homo sapiens) (UniProt Q15418); conditions: Compound concentration 1000.0 nM
[37] = target: MAP kinase-interacting serine/threonine-protein kinase 2 (Homo sapiens) (UniProt Q9HBH9); conditions: Compound concentration 1000.0 nM
[38] = target: Discoidin domain-containing receptor 2 (Homo sapiens) (UniProt Q16832); conditions: Compound concentration 1000.0 nM
[39] = system: Epidermal growth factor receptor (Homo sapiens), P00533 [T790M]; conditions: Compound concentration 1000.0 nM
[40] = target: Cyclin-G-associated kinase (Homo sapiens) (UniProt O14976); conditions: Compound concentration 1000.0 nM
[41] = target: Serine/threonine-protein kinase 4 (Homo sapiens) (UniProt Q13043); conditions: Compound concentration 1000.0 nM
[42] = target: Phosphatidylinositol 4-phosphate 5-kinase type-1 alpha (Homo sapiens) (UniProt Q99755); conditions: Compound concentration 1000.0 nM
[43] = target: Serine/threonine-protein kinase Nek1 (Homo sapiens) (UniProt Q96PY6); conditions: Compound concentration 1000.0 nM
[44] = target: Mitogen-activated protein kinase kinase kinase 13 (Homo sapiens) (UniProt O43283); conditions: Compound concentration 1000.0 nM

Myosin-IIIa (Homo sapiens), sequence (Q8NEV4 whole entry): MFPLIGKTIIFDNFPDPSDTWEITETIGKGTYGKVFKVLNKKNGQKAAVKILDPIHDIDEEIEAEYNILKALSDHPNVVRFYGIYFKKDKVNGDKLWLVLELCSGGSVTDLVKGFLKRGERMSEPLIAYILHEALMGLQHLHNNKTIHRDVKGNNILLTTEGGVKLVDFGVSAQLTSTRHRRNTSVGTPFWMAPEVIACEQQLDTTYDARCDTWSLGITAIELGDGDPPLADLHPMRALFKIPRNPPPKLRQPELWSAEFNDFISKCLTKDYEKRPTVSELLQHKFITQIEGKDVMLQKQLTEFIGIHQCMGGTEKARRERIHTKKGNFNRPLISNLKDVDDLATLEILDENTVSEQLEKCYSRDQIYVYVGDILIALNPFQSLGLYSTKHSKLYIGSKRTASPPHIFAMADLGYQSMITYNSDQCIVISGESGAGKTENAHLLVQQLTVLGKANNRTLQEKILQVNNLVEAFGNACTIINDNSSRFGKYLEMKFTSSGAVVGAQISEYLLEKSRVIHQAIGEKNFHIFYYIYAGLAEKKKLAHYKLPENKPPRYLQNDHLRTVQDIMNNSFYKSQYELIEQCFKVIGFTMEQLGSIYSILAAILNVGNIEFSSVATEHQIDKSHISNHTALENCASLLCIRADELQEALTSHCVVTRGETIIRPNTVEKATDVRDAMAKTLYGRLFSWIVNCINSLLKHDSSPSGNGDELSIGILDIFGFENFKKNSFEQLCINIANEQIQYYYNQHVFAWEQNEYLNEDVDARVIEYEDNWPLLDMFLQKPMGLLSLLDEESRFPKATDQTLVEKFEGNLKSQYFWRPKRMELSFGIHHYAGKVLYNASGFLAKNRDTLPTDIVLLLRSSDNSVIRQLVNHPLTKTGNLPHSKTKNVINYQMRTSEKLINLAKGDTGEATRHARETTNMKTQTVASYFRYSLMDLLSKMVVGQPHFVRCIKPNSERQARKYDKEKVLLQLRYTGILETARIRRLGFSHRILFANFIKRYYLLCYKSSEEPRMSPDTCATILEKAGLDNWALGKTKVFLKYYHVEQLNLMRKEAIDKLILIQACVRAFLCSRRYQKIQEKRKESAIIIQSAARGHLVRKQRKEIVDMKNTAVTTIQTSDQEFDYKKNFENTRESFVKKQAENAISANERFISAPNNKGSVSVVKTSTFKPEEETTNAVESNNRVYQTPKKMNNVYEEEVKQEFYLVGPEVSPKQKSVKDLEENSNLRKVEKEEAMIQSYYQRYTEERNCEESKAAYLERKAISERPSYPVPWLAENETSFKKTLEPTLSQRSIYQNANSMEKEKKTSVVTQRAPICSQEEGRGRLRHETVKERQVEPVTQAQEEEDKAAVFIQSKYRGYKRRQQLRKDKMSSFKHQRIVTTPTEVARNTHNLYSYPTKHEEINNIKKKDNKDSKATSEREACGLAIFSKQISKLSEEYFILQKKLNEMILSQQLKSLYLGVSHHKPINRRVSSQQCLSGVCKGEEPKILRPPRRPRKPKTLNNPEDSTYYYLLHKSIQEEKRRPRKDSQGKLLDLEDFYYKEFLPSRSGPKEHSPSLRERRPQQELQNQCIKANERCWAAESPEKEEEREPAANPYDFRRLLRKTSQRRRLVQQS
Phosphatidylinositol 4-phosphate 5-kinase type-1 alpha (Homo sapiens), sequence (Q99755 whole entry): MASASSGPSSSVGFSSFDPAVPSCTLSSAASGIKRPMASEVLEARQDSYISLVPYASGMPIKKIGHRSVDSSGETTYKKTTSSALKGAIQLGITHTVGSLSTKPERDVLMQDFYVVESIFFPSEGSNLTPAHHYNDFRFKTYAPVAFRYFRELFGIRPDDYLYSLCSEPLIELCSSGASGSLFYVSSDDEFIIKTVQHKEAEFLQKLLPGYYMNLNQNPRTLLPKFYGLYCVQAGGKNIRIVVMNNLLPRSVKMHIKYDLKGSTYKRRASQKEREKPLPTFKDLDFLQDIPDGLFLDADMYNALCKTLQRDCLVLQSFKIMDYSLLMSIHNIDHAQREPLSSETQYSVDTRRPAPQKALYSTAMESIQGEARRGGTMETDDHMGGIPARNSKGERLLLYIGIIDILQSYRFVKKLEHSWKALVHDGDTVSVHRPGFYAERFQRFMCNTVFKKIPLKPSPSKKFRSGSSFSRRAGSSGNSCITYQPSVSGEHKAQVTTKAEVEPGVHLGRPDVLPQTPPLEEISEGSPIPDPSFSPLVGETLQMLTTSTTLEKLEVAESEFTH
Casein kinase I isoform delta (Homo sapiens), sequence (P48730 whole entry, looked up, canonical isoform): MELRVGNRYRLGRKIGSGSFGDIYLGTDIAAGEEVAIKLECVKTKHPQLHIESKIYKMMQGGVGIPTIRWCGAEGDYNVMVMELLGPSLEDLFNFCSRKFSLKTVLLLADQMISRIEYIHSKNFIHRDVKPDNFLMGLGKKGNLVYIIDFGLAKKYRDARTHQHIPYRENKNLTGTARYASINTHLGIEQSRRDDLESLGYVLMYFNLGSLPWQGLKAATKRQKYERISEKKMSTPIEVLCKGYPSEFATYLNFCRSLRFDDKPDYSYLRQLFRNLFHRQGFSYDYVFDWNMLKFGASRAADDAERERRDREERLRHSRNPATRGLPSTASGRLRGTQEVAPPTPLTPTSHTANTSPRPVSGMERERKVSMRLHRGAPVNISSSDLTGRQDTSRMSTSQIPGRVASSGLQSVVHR
Bone morphogenetic protein receptor type-2 (Homo sapiens), sequence (Q13873 whole entry): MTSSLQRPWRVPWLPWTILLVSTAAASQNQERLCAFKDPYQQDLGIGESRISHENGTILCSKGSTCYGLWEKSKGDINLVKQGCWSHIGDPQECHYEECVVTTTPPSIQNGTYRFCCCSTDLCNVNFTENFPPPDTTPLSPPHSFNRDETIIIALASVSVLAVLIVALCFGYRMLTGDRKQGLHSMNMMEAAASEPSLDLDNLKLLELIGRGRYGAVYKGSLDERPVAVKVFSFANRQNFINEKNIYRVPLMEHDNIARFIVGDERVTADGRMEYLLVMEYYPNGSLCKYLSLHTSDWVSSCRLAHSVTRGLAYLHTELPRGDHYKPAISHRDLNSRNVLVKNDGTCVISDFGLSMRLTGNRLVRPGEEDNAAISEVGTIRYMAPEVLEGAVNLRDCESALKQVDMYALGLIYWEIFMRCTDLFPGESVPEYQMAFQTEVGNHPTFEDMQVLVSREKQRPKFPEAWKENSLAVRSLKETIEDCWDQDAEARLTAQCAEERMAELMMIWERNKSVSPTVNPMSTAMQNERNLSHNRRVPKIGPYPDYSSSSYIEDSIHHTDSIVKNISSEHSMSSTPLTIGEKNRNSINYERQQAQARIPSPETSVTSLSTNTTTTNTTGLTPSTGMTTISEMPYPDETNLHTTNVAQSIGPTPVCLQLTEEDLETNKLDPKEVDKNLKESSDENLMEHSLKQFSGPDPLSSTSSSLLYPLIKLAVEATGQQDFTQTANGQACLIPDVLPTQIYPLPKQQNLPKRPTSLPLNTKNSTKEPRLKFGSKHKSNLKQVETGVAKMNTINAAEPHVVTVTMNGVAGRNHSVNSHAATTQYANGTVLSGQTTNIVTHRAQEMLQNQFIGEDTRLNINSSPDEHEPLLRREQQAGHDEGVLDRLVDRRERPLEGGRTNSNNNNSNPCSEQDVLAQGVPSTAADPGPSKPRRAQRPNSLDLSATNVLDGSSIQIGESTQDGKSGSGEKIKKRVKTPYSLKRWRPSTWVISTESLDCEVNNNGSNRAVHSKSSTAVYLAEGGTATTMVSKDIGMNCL
Serine/threonine-protein kinase TNNI3K (Homo sapiens), sequence (Q59H18 whole entry): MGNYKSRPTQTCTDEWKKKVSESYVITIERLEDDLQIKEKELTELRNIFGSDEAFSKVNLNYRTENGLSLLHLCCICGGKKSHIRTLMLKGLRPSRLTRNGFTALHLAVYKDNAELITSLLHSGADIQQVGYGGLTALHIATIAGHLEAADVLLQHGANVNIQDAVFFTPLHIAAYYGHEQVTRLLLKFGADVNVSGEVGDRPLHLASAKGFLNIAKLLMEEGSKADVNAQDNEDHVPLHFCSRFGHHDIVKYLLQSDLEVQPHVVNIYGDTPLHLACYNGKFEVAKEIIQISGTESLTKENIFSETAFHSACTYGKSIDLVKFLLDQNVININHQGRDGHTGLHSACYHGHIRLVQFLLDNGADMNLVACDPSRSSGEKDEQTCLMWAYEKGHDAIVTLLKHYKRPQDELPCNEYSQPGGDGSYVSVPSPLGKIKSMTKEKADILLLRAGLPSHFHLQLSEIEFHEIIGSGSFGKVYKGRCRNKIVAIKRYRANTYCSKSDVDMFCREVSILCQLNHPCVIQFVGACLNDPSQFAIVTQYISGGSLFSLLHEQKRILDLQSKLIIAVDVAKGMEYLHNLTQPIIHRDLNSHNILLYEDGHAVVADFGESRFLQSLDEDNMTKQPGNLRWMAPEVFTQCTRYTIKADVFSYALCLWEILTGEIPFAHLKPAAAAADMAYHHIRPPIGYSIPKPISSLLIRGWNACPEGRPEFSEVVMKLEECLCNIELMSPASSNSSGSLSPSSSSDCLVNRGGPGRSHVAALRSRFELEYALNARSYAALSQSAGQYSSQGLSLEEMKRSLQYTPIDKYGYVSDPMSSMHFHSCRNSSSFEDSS
MAP kinase-interacting serine/threonine-protein kinase 2 (Homo sapiens), sequence (Q9HBH9 whole entry, looked up, the tested form may be a part): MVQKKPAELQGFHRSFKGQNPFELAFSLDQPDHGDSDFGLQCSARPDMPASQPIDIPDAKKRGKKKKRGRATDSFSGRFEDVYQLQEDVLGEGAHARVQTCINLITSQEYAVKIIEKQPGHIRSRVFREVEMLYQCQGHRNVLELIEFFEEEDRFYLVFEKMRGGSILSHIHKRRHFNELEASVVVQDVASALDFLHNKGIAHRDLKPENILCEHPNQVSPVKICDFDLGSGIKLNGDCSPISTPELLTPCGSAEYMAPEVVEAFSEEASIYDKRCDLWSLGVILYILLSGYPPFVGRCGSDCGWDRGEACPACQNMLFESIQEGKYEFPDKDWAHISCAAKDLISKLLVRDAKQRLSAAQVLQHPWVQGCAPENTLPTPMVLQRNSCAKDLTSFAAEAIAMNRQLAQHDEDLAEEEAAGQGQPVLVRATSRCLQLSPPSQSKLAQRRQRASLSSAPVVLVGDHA

## CCC(=N\O)/C(C)=C/c1ccc(F)c(C)c1 [A-226]
[1]
  residual activity: 96%
[2]
  residual activity: 100%
[3]
  residual activity: 100%
[4]
  residual activity: 100%
[5]
  residual activity: 100%
[6]
  residual activity: 72%
[7]
  residual activity: 78%
[8]
  residual activity: 100%
[9]
  residual activity: 100%
[10]
  residual activity: 100%
[11]
  residual activity: 100%
[12]
  residual activity: 100%
[13]
  residual activity: 100%
[14]
  residual activity: 73%
Rattus norvegicus
  inhibition: 50.6%
[15]
  residual activity: 100%
[16]
  residual activity: 63%
[17]
  residual activity: 100%
[18]
  residual activity: 70%
[19]
  residual activity: 79%
[20]
  residual activity: 98%
[21]
  residual activity: 100%
[22]
  residual activity: 89%
[23]
  residual activity: 94%
[24]
  residual activity: 53%
[25]
  residual activity: 73%
[26]
  residual activity: 100%
[27]
  residual activity: 100%
[28]
  residual activity: 100%
[29]
  residual activity: 100%
[30]
  residual activity: 90%
[31]
  inhibition: -3.93%
[32]
  residual activity: 92%
[33]
  residual activity: 98%
[34]
  residual activity: 97%
[35]
  residual activity: 80%
[36]
  residual activity: 96%
[37]
  residual activity: 100%
[38]
  residual activity: 100%
[39]
  residual activity: 100%
[40]
  residual activity: 96%
[41]
  residual activity: 70%
[42]
  residual activity: 100%
[43]
  residual activity: 100%
[44]
  residual activity: 23%

## CCC(=N\O)/C(C)=C/c1ccc(F)cc1 [A-079]
[1]
  residual activity: 85%
[2]
  residual activity: 78%
[3]
  residual activity: 70%
[4]
  residual activity: 74%
[5]
  residual activity: 77%
[6]
  residual activity: 88%
[7]
  residual activity: 100%
[8]
  residual activity: 80%
[9]
  residual activity: 89%
[10]
  residual activity: 100%
[11]
  residual activity: 100%
[12]
  residual activity: 100%
[13]
  residual activity: 81%
[14]
  residual activity: 65%
Rattus norvegicus
  inhibition: 11.9%
[15]
  residual activity: 73%
[16]
  residual activity: 89%
[17]
  residual activity: 100%
[18]
  residual activity: 70%
[19]
  residual activity: 67%
[20]
  residual activity: 75%
[21]
  residual activity: 100%
[22]
  residual activity: 100%
[23]
  residual activity: 100%
[24]
  residual activity: 70%
[25]
  residual activity: 100%
[26]
  residual activity: 94%
[27]
  residual activity: 94%
[28]
  residual activity: 87%
[29]
  residual activity: 80%
[30]
  residual activity: 77%
[31]
  inhibition: 15.6%
[32]
  residual activity: 81%
[33]
  residual activity: 99%
[34]
  residual activity: 80%
[35]
  residual activity: 100%
[36]
  residual activity: 100%
[37]
  residual activity: 100%
[38]
  residual activity: 91%
[39]
  residual activity: 100%
[40]
  residual activity: 99%
[41]
  residual activity: 78%
[42]
  residual activity: 97%
[43]
  residual activity: 94%
[44]
  residual activity: 96%
